Measurements reported in patent US9492471B2, “Methods of treating a disease or disorder associated with Bruton'S Tyrosine Kinase” (Celgene Avilomics Research, Inc., priority 2013, dated 2016).
Read-outs that look alike come from different tables or passages of the source.

Key:
Experiment in all cases: HotSpot kinase profiling
Assay type in all cases: biochemical
TAOK1 = biological target: T1, TAOK1 (Homo sapiens, UniProt Q7L7X3)
T1 construct: purchased Reaction Biology Corp
T1 sequence (Q7L7X3 1-1001): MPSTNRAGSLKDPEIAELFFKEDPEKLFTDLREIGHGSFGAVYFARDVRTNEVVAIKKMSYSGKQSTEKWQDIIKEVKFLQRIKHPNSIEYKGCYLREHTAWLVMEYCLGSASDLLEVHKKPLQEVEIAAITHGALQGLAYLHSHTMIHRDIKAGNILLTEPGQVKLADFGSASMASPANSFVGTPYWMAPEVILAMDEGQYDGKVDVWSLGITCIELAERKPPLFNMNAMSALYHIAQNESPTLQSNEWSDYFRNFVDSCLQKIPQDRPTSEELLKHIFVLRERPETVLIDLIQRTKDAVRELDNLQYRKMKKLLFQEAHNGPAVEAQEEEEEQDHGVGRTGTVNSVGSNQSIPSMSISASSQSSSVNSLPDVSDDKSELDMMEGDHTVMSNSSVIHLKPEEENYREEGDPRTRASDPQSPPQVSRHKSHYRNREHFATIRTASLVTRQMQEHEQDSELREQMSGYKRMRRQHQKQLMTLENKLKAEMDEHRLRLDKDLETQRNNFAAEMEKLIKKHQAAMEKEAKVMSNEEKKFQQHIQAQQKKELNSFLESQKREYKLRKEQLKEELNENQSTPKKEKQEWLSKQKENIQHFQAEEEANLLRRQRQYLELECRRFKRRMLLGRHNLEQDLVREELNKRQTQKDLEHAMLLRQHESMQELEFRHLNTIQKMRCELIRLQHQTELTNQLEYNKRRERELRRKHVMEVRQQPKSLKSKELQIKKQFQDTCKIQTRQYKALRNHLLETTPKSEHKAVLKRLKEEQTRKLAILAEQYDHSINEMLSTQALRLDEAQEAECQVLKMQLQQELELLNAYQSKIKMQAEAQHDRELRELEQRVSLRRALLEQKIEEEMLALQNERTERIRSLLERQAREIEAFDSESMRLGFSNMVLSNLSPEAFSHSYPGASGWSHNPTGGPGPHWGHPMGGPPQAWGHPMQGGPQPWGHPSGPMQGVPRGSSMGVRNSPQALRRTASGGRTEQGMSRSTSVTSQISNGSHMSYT
Method in brief: (§1)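 Radio-isotope P81 filtration format. Substrate + required cofactors in reaction buffer, kinase added, 2 h RT. Stop, wash with 0.1% phosphoric acid, detect. % inhibition vs DMSO; mean of duplicates where repeated.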

CDK4/cyclin D3 = biological target: T2, CDK4/cyclin D3 (Homo sapiens, UniProt P11802)
T2 construct: purchased Reaction Biology Corp
T2 sequence (P11802 whole entry): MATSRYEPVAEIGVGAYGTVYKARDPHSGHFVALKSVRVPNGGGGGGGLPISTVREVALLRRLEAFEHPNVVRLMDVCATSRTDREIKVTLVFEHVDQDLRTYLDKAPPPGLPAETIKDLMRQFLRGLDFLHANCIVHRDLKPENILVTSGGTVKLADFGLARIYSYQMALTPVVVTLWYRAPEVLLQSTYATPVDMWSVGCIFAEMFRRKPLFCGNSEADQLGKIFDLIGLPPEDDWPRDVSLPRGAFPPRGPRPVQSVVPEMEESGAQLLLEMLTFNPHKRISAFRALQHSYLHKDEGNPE
T2 sequence (P30281 whole entry partner): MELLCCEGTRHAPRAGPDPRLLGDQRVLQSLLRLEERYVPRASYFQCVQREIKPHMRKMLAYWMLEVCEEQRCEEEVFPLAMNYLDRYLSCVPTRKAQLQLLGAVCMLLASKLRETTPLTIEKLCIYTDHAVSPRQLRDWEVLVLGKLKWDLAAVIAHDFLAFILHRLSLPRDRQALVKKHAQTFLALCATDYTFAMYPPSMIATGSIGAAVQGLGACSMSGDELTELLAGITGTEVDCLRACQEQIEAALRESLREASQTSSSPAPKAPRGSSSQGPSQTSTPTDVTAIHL
Method in brief: as §1

CDK6/cyclin D3 = biological target: T3, CDK6/cyclin D3 (Homo sapiens, UniProt Q00534)
T3 construct: purchased Reaction Biology Corp
T3 sequence (Q00534 whole entry): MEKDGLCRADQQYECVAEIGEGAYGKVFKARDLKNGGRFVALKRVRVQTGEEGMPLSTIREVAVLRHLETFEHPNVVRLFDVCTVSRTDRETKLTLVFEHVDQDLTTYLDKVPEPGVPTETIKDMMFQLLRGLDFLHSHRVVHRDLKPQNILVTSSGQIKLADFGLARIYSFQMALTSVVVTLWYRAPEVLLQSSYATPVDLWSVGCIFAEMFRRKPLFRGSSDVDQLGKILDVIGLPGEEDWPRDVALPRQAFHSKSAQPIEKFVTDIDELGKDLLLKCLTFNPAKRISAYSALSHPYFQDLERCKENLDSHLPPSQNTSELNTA
T3 sequence (P30281 whole entry partner): as the sequence (P30281 whole entry partner) above
Method in brief: as §1

PAK6 = biological target: T4, PAK6 (Homo sapiens, UniProt Q9NQU5)
T4 construct: purchased Reaction Biology Corp
T4 sequence (Q9NQU5 whole entry): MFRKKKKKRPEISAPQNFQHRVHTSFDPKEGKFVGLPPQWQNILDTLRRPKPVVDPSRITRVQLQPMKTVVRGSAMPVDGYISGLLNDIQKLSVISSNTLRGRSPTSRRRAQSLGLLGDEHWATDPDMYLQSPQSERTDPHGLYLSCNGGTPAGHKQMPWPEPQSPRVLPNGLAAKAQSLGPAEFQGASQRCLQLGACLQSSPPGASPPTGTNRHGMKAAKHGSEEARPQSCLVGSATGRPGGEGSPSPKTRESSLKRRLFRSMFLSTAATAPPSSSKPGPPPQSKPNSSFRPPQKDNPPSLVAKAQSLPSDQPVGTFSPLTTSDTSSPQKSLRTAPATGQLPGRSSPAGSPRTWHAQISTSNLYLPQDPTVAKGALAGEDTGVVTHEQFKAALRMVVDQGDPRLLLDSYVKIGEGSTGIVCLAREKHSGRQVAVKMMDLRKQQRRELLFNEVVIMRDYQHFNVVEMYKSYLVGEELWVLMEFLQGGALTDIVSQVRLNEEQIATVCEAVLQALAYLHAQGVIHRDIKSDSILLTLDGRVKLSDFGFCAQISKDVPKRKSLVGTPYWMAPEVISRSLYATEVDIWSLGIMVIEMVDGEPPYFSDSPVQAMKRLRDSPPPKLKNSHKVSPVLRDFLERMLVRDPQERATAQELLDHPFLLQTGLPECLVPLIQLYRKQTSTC
Method in brief: as §1

CAMKK1 = biological target: T5, CAMKK1 (Homo sapiens, UniProt Q8N5S9)
T5 construct: purchased Reaction Biology Corp
T5 sequence (Q8N5S9 whole entry): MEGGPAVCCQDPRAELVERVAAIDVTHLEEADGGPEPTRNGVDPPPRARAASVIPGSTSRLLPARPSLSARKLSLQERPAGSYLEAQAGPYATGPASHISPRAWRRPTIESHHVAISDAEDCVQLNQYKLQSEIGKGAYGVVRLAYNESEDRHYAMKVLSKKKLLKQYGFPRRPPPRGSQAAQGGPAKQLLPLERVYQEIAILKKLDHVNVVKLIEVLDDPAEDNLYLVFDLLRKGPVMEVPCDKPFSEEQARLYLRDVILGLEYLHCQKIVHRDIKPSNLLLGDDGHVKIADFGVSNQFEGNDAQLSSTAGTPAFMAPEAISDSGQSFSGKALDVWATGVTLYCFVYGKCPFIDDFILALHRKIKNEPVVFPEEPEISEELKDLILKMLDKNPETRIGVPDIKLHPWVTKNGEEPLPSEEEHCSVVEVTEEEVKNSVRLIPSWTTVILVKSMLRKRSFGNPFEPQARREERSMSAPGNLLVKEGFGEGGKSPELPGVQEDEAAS
Method in brief: as §1

Aurora C = biological target: T6, Aurora C (Homo sapiens, UniProt Q9UQB9)
T6 construct: purchased Reaction Biology Corp
T6 sequence (Q9UQB9 1-309): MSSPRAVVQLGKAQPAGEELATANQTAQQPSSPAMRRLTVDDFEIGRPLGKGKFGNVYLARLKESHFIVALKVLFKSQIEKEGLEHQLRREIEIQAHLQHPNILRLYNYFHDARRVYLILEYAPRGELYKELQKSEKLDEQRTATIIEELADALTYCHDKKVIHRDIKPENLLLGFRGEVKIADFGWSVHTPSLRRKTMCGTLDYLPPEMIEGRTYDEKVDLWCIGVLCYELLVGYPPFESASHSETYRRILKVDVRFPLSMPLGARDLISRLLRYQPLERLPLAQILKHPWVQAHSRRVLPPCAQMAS
Method in brief: as §1

CK2a2 = biological target: T7, CK2a2 (Homo sapiens, UniProt P19784)
T7 construct: purchased Reaction Biology Corp
T7 sequence (P19784 whole entry): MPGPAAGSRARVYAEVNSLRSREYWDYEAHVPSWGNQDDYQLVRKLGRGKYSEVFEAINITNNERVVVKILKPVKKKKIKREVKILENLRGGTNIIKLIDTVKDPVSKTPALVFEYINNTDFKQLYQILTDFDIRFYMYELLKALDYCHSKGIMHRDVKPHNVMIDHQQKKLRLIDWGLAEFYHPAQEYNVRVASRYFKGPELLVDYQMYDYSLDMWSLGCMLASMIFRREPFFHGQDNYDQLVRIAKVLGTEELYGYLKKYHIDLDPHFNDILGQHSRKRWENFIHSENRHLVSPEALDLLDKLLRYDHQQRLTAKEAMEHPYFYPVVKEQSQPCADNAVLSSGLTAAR
Method in brief: as §1

PKN1/PRK1 = biological target: T8, PKN1/PRK1 (Homo sapiens, UniProt Q16512)
T8 construct: purchased Reaction Biology Corp
T8 sequence (Q16512 whole entry): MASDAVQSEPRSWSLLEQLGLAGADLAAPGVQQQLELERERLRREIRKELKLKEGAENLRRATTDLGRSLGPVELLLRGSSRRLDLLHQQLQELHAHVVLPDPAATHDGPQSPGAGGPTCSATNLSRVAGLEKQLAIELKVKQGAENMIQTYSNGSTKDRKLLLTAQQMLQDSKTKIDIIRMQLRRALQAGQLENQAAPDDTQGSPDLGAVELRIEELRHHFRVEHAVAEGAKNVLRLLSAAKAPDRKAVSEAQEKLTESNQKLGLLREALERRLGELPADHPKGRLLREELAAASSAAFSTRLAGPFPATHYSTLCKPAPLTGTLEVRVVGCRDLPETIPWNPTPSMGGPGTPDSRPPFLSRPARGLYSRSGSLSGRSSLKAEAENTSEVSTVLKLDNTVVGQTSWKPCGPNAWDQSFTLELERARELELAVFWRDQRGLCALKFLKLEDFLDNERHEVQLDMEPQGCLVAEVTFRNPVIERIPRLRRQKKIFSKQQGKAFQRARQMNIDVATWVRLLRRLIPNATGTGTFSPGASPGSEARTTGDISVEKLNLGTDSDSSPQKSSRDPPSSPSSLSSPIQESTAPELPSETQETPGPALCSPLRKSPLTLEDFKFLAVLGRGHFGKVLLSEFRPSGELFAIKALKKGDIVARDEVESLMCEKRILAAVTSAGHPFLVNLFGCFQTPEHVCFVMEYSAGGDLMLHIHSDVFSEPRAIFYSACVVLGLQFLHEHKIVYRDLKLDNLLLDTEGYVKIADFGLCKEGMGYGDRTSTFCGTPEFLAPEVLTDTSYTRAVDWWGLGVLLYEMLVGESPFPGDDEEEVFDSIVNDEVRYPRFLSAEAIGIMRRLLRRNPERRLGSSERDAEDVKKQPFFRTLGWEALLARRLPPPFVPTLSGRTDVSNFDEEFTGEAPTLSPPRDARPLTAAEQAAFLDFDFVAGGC
Method in brief: as §1

MSSK1/STK23 = biological target: T9, MSSK1/STK23 (Homo sapiens, UniProt Q9UPE1)
T9 construct: purchased Reaction Biology Corp
T9 sequence (Q9UPE1 whole entry): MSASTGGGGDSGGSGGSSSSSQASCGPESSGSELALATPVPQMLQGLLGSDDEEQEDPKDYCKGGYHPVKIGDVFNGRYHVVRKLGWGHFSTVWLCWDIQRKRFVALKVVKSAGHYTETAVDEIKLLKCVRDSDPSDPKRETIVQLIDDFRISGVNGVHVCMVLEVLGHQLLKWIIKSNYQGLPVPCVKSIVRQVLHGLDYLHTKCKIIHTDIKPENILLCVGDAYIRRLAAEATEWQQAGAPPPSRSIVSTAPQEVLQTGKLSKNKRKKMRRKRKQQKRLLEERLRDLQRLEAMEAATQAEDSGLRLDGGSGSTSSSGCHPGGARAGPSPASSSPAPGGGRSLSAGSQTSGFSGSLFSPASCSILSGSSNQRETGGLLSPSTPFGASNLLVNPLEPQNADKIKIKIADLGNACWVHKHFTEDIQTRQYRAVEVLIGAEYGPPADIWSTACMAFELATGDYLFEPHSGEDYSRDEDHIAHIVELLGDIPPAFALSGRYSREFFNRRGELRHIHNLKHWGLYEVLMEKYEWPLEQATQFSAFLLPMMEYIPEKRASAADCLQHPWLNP
Method in brief: as §1

TLK2 = biological target: T10, TLK2 (Homo sapiens, UniProt Q86UE8)
T10 construct: purchased Reaction Biology Corp
T10 sequence (Q86UE8 whole entry): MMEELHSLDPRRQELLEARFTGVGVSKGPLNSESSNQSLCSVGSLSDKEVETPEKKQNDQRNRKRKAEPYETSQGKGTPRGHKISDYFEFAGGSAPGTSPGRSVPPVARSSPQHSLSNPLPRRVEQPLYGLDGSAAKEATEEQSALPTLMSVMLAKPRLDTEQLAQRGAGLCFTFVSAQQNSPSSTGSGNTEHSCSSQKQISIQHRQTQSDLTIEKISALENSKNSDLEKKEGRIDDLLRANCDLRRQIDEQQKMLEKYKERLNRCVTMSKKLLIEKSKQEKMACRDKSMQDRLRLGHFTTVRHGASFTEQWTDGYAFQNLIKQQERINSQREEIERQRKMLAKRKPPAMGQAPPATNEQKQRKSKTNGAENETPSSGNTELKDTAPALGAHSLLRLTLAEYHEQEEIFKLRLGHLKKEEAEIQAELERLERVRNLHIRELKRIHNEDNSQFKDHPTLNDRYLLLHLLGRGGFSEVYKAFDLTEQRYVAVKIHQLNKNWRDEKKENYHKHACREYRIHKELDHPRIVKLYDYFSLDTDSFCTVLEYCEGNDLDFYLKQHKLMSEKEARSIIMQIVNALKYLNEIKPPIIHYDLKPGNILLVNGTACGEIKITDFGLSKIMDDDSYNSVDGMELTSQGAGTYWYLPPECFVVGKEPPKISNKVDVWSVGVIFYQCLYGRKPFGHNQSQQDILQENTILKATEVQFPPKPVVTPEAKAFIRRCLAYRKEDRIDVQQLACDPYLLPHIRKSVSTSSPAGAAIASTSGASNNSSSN
Method in brief: as §1

PAK5 = biological target: T11, PAK5 (Homo sapiens, UniProt Q9P286)
T11 construct: purchased Reaction Biology Corp
Method in brief: as §1

[1] = read-out: % Enzyme Activity (relative to DMSO controls) Run 1
[2] = read-out: % Enzyme Activity (relative to DMSO controls) Run 2

Q: C=CC(=O)Nc1cccc(Nc2nc(Nc3ccc(OCCOC)c(F)c3)ncc2F)c1 [Compound 2] was tested. Which inhibition at 3 µM (TAOK1) did it give?
A: 1.63%

Q: What about the remaining activity at 3 µM (TAOK1; [1]) of the same compound?
A: 100%

Q: What about the remaining activity at 3 µM (TAOK1; [2]) of the same compound?
A: 96.2%

Q: What about the inhibition at 3 µM (CDK4/cyclin D3) of the same compound?
A: 5.15%

Q: What about the remaining activity at 3 µM (CDK4/cyclin D3; [1]) of the same compound?
A: 95.5%

Q: And the remaining activity at 3 µM (CDK4/cyclin D3; [2])?
A: 94.2%

Q: And the inhibition at 3 µM (CDK6/cyclin D3)?
A: 0.16%

Q: What about the remaining activity at 3 µM (CDK6/cyclin D3; [1]) of the same compound?
A: 99.5%

Q: And the remaining activity at 3 µM (CDK6/cyclin D3; [2])?
A: 100%

Q: And the inhibition at 3 µM (PAK6)?
A: 18%

Q: And the remaining activity at 3 µM (PAK6; [1])?
A: 79.3%

Q: What about the remaining activity at 3 µM (PAK6; [2]) of the same compound?
A: 84.8%

Q: And the inhibition at 3 µM (CAMKK1)?
A: 9.31%

Q: And the remaining activity at 3 µM (CAMKK1; [1])?
A: 93.5%

Q: And the remaining activity at 3 µM (CAMKK1; [2])?
A: 87.9%

Q: What about the inhibition at 3 µM (Aurora C) of the same compound?
A: 72%

Q: What about the remaining activity at 3 µM (Aurora C; [1]) of the same compound?
A: 26.2%

Q: What about the remaining activity at 3 µM (Aurora C; [2]) of the same compound?
A: 29.8%

Q: What about the inhibition at 3 µM (CK2a2) of the same compound?
A: -1.81%

Q: And the remaining activity at 3 µM (CK2a2; [1])?
A: 98.2%

Q: What about the remaining activity at 3 µM (CK2a2; [2]) of the same compound?
A: 105%

Q: And the inhibition at 3 µM (PKN1/PRK1)?
A: 6.94%

Q: And the remaining activity at 3 µM (PKN1/PRK1; [1])?
A: 93.8%

Q: And the remaining activity at 3 µM (PKN1/PRK1; [2])?
A: 92.3%

Q: What about the inhibition at 3 µM (MSSK1/STK23) of the same compound?
A: -6.62%

Q: And the remaining activity at 3 µM (MSSK1/STK23; [1])?
A: 108%

Q: What about the remaining activity at 3 µM (MSSK1/STK23; [2]) of the same compound?
A: 105%

Q: And the inhibition at 3 µM (TLK2)?
A: -6.32%

Q: And the remaining activity at 3 µM (TLK2; [1])?
A: 108%

Q: And the remaining activity at 3 µM (TLK2; [2])?
A: 105%

Q: And the inhibition at 3 µM (PAK5)?
A: -27.4%

Q: What about the remaining activity at 3 µM (PAK5; [1]) of the same compound?
A: 123%

Q: And the remaining activity at 3 µM (PAK5; [2])?
A: 132%
